Consider six molecules from PubChem BioAssay (NCI).

Test in all cases: NCI tumour cell line growth inhibition, 48 h
Assay [1] concerns CAKI-1 renal.
Assay [2] has as its system COLO 205 colon.
Assay [3] has as its system HL-60(TB) leukemia.
The test system of assay [4] is MDA-MB-231 breast.
For assay [5], the system named is MDA-MB-435.
In assay [6] the test system is NCI/ADR-RES ovarian.
In assay [7] the test system is OVCAR-3 ovarian.
The test system of assay [8] is SK-MEL-28 melanoma.
Assay [9] has as its system UACC-62 melanoma.
Assay [10] concerns UO-31 renal.

Several values for one entry are separate records, joined by “and”; a condition that tells them apart may be missing. Equal entries are not always repeated.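 48-hour exposure; five concentrations; linearly interpolated endpoints. GI50 marks 50% less growth. Definition used: TGI = concentration required for complete inhibition of growth.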

As for `CN(C)c1ccc(C(=C2C=CC(=[N+](C)C)C=C2)c2ccccc2Cl)cc1`, the GI50 in [1] is 0.455 µM; in assay [2], 0.17 µM; in [3] it was 0.277 µM; in [4], 0.338 µM; in assay [5], 0.309 µM; in [6] it was 1.89 µM. In addition, the GI50 in [7] is 0.261 µM; in [8] it was 0.4 µM; in assay [9], 0.323 µM; in assay [10] it was 0.762 µM. The TGI in assay [1] was 2.76 µM; in assay [2], 0.312 µM; in assay [3] it was 3.84 µM; in assay [4], 1.73 µM; in assay [5], 1.11 µM; in assay [6], 14.8 µM. For the same molecule, the TGI in assay [7] is 0.699 µM; in assay [8] it was 1.44 µM; in assay [9], 1.43 µM; in assay [10], 6.49 µM.
On to `CC(=O)/C(=C\c1c(-c2ccccc2)[nH]c2ccccc12)S(=O)(=O)c1ccccc1`, for which the GI50 is 2.43 µM in [1]; 1.54 µM in assay [2]; 1.69 µM in assay [3]; 1.74 µM in [4]; 0.295 µM in [5]; 0.513 µM in assay [6]. For the same molecule, the GI50 in assay [7] is 1.54 µM; in assay [8] it was 1.87 µM; in assay [9] it was 0.975 µM; in [10], 1.58 µM. For the same molecule, the TGI was found to be 10.6 µM in assay [1]; 5.62 µM in assay [2]; 5.28 µM in assay [3]; 19.2 µM in assay [4]; 4.14 µM in assay [5]; 5.62 µM in [6]. Moreover, the TGI is 4.52 µM in [7], 7.02 µM in assay [8], 4.46 µM in [9] and 3.54 µM in assay [10].
For the molecule `CCCC#CCOC(=O)c1cc([N+](=O)[O-])cc([N+](=O)[O-])c1`, the TGI in assay [1], in [2], in assay [3], in [4], in assay [5] and in [6] was greater than 100 µM in each case. Further, the TGI in [7], in [8], in assay [9] and in assay [10] was greater than 100 µM each time.
On to `CN(C)CCNc1nc2ccccc2c2occc12`, for which the GI50 in assay [1] is 52.7 µM; in [2] it was 25.2 µM; in assay [3], 49.6 µM; in [4] it was 23.7 µM; in assay [5], 54.5 µM; in assay [6] it was 51.8 µM. Besides, the GI50 in [7] is 97.2 µM; in [8], 27 µM; in assay [9], 16.6 µM; in assay [10] it was 26.1 µM. The TGI is greater than 100 µM in assay [1]; greater than 100 µM in assay [2]; greater than 100 µM in assay [3]; 77.6 µM in assay [4]; greater than 100 µM in assay [5]; greater than 100 µM in assay [6]. The TGI in assay [7] is greater than 100 µM; in assay [8], greater than 100 µM; in assay [9] it was 34.3 µM; in assay [10], greater than 100 µM.
Regarding `O=C(c1ccccc1O)c1[nH]c(Cl)c(Cl)c1-n1c(C(=O)c2ccccc2O)cc(Cl)c1Cl`, the GI50 is 0.425 µM and 0.385 µM in assay [1]; 0.703 µM and 0.757 µM in assay [2]; 1.19 µM and 0.432 µM in assay [3]; 1.07 µM and 0.354 µM in assay [4]; 1.87 µM and 1.51 µM in [5]; 0.669 µM and 0.456 µM in assay [6]. Moreover, the GI50 in [7] is 1.03 µM and 0.704 µM; in assay [8], 0.844 µM and 0.529 µM; in assay [9] it was 0.495 µM and 0.361 µM; in [10] it was 2.6 µM and 2.02 µM. Also, the TGI in [1] is 10.6 µM and 3.1 µM; in assay [2] it was 2.47 µM and 3.17 µM; in [3], 5.48 µM and 3.58 µM; in [4], 5.87 µM and 2.61 µM; in assay [5], 10.6 µM and 10.4 µM; in assay [6], 12.9 µM and 11.2 µM. Also, the TGI is 13.1 µM and 13.4 µM in assay [7]; 12.3 µM and 11.3 µM in [8]; 3.34 µM and 2.09 µM in assay [9]; 11.4 µM and 6.95 µM in assay [10].
`CC12CCC(O)CC1=CCC1C2CCC2(C)C(c3cccnc3)=CCC12` (stereo not given): the GI50 in assay [1] is greater than 100 µM; in [2], greater than 100 µM; in assay [3] it was greater than 100 µM; in assay [4], greater than 100 µM; in assay [5], 83.7 µM; in assay [6], greater than 100 µM. Also, the GI50 in assay [7], in assay [8], in assay [9] and in assay [10] was greater than 100 µM in each case. Also, the TGI in assay [1], in [2], in [3], in [4], in [5] and in assay [6] was greater than 100 µM throughout. Further, the TGI in [7], in assay [8], in assay [9] and in assay [10] was greater than 100 µM throughout.
